The source of these data is patent publication US4918173A, “2',6'-Dideoxy derivatives of anthracycline glycosides” (Laboratories Hoechst S.A., priority 1985, dated 1990).

Converted amounts (≈) assume the structure as drawn. Read-outs that look alike come from different tables or passages of the source.

One series has as its system L 1210 leukemia cells. In words: Effect on L 1210 leukemia cells: colony formation in agarose, method of Hamburger and Salmon modified. Conditions: Mus musculus. The series is classed as cell-based. As to the method:
The cells are incubated for 1 hour at 37° C. in the presence of various concentrations of the tested substance. The cells are then washed twice with Mc Coy 5 A and placed on agarose plates according to the method of Hamburger and Salmon. Furthermore, the test is carried out in parallel with continuous incubation with various concentrations of the substance under study by introducing the substance into the agarose layer before the cells are left to incubate. The dishes are placed in the oven at 37° C. under an atmosphere of 5% CO2 and 20% O2, and a relative humidity of 95% for 5 to 7 days. After this time the colonies with a diameter greater than 60 mcm are counted with the aid of a reversed microscope. […] Two experiments are carried out, one with 1 hour's exposure, the other with continuous exposure.

For series [1] the following is noted: versus the parent compounds; F. Arcamone et al. 1976; cited from earlier work.
Where [2] appears, read: L1210, L 1210 leukemia cells, 1 h exposure at 37° C., read-out: IC 50, 1 h exposure.
Where [3] appears, read: L1210, L 1210 leukemia cells, continuous exposure (substance in agarose layer), 5 to 7 days, read-out: IC 50, Continuous exposure.

In the case of `C[C@@H]1O[C@@H](O[C@H]2C[C@]3(COC(C)(C)O3)Cc3c(O)c4c(c(O)c32)C(=O)c2ccccc2C4=O)C[C@H](O)[C@H]1O`, the IC50 with L 1210 leukemia cells (setting [2]) and in the series with L 1210 leukemia cells (setting [3]) was more than 1 µg/mL throughout.

Regarding `CC(=O)[C@]1(O)Cc2c(O)c3c(c(O)c2[C@@H](O[C@H]2C[C@H](N)[C@H](O)[C@H](C)O2)C1)C(=O)c1ccccc1C3=O` [4-demethoxydaunorubicin], in series [1], the “activity relative to the parent compounds” value is reported as “more active” and the “toxicity relative to the parent compounds” value is on record as “less toxic”.

With `COc1cccc2c1C(=O)c1c(O)c3c(c(O)c1C2=O)C[C@@](O)(C(=O)CO)C[C@@H]3O[C@H]1C[C@H](N)[C@H](O)[C@H](C)O1` [DOXORUBICIN, reference compound], the IC50 was determined as 0.02 µg/mL (≈ 0.0368 µM) in the series on L 1210 leukemia cells (L1210, 1 h, read-out: IC 50, 1 h exposure) and 0.04 µg/mL (≈ 0.0736 µM) in the series on L 1210 leukemia cells (L1210, read-out: IC 50, Continuous exposure).

In the case of `CC(=O)O[C@H]1[C@H](C)O[C@@H](O[C@H]2C[C@]3(COC(C)(C)O3)Cc3c(O)c4c(c(O)c32)C(=O)c2ccccc2C4=O)C[C@@H]1OC(C)=O` [XXIII, 1-O-(3',4'-Di-O-acetyl-2',6'-dideoxy-α-L-arabinohexopyranosyl)-1,2,3,4,6,11-hexahydro-1S,3S,5,12-tetrahydroxy-3-hydroxymethyl-3,13-O-isopropylidenenaphthacene-6,11-dione], the IC50 with L 1210 leukemia cells (setting [2]) was 2.8 µg/mL (≈ 4.59 µM); in the series on L 1210 leukemia cells (setting [3]), more than 10 µg/mL.

Turning to `CC(=O)O[C@H]1[C@H](C)O[C@@H](O[C@H]2C[C@](O)(CO)Cc3c(O)c4c(c(O)c32)C(=O)c2ccccc2C4=O)C[C@@H]1OC(C)=O` [XXIV, 1-O-(3',4'-Di-O-acetyl-2',6'-dideoxy-α-L-arabinohexopyranosyl)-1,2,3,4,6,11-hexahydro-1S,3S,5,12-tetrahydroxy-3-hydroxymethylnaphthacene-6,11-dione], the figures for the IC50 with L 1210 leukemia cells (setting [2]) and in the series on L 1210 leukemia cells (setting [3]) were 0.021 µg/mL (≈ 0.0368 µM) and 3.6 µg/mL (≈ 6.31 µM), respectively.

For `C[C@@H]1O[C@@H](O[C@H]2C[C@](O)(CO)Cc3c(O)c4c(c(O)c32)C(=O)c2ccccc2C4=O)C[C@H](O)[C@H]1O` [XXV, 1-O-(2',6'-dideoxy-α-L-arabinohexopyranosyl)-1,2,3,4,6,11-hexahydro-1S,3S,5,12-tetrahydroxy-3-hydroxymethylnaphthacene-6,11-dione], the IC50 was 0.025 µg/mL (≈ 0.0514 µM) with L 1210 leukemia cells (setting [2]) and 0.063 µg/mL (≈ 0.13 µM) in the series on L 1210 leukemia cells (setting [3]).

As for `COc1cccc2c1C(=O)c1c(O)c3c(c(O)c1C2=O)C[C@@](O)(C(=O)CO)C[C@@H]3O[C@H]1C[C@H](N)[C@H](O)[C@H](C)O1` [adriamycin], in series [1], the “activity relative to the parent compounds” value was “more active” and the “toxicity relative to the parent compounds” value is listed as “less toxic”.
